Legend:
MT4 CC50 cytotoxicity = type: cell-based; conditions: human; MT4 cells, 4-5 days, CellTiter Glo
Description: (§1) HEp-2 (1.5×10^3 cells/well) or MT4 (2×10^3 cells/well) cells were plated in 384-well plates and incubated with the appropriate medium containing 3-fold serially diluted compound ranging from 15 nM to 100,000 nM. Cells were cultured for 4-5 days at 37° C. Following the incubation, the cells were allowed to equilibrate to 25° C., and cell viability was determined by adding CellTiter Glo viability reagent. The mixture was incubated for 10 min, and the luminescence signal was quantified using an Envision plate reader. Cell lines were not authenticated and were not tested for mycoplasma as part of routine use in cytotoxicity assays.

HEp-2 CC50 cytotoxicity = type: cell-based; conditions: human; HEp-2 cells, 4-5 days, CellTiter Glo; read-out: HEp2 CC50
Description: as §1

RSV strain A2 = test: RSV EC50 HEp-2 cytopathic cell protection assay; type: cell-based; conditions: human respiratory syncytial virus, 96 h; HEp-2 cells, RSV strain A2, 4 days, Cell TiterGlo; read-out: RSV EC50 HEp2
DENV2 NS5 = DENV2 NS5 (Dengue virus type 2, UniProt P14340); test: DENGUE sshRNA Polymerase IC50; type: biochemical; conditions: 100 nM DENV2 NS5, sshRNA template, 90 minutes at 30° C.
Description: A 244 nucleotide secondary structureless heteropolymeric RNA (sshRNA) with sequence 5′-(UCAG)20(UCCAAG)14(UCAG)20-3′ (SEQ ID NO: 1) is used as the template with 5′-CUG-3′ primer in the DENV2-NS5 polymerase assay. Six two-fold dilutions of compounds starting from 200 nM and no inhibitor control are plated in 96-well plates. […] Enzyme mix is added to compound dilutions and reactions initiated by the addition of a mixture containing 20 μM of three natural NTP plus 2 μM of analog:base matched competing natural NTP containing 1:100 α-^33P-NTP. After 90 minutes at 30° C., 5 μL of the reaction mixtures are spotted on DE81 anion exchange paper. Filter papers are washed three times with Na2HPO4 (125 mM, pH 9) for 5 minutes, rinsed with water and ethanol, then air-dried and exposed to phosphorimager. Synthesized RNA is quantified using Typhoon Trio Imager and Image Quant TL Software and reaction rates are calculated by linear regression using GraphPad Prism 5.0. IC50 values are calculated in Prism by non-linear regression analysis using the dose-response (variable slope) equation (four-parameter logistic equation): Y=Bottom+(Top−Bottom)/(1+10^((LogIC50−X)*HillSlope)).

RSV RNP complexes = RSV RNP complexes (Human respiratory syncytial virus A, UniProt P28887); test: RSV RNP Polymerase IC50 transcription assay; type: biochemical; conditions: crude RSV RNP complexes, 90 min at 30° C.
Description: Transcription reactions contained 25 μg of crude RSV RNP complexes in 30 μL of reaction buffer (50 mM TRIS-acetate [pH 8.0], 120 mM potassium acetate, 5% glycerol, 4.5 mM MgCl2, 3 mM DTT, 2 mM EGTA, 50 μg/mL BSA, 2.5 U RNasin, 20 μM ATP, 100 μM GTP, 100 μM UTP, 100 μM CTP, and 1.5 μCi [α-^32P] ATP [3,000 Ci/mmol]). The radiolabeled nucleotide used in the transcription assay was selected to match the nucleotide analog being evaluated for inhibition of RSV RNP transcription. To determine whether nucleotide analogs inhibited RSV RNP transcription, compounds were added using a 6-step serial dilution in 5-fold increments. After a 90 min incubation at 30° C., the RNP, reactions were stopped with 350 μL of Qiagen RLT lysis buffer, and the RNA was purified using a Qiagen RNeasy 96 kit. Purified RNA was denatured in RNA sample loading buffer at 65° C. for 10 min and run on a 1.2% agarose/MOPS gel containing 2M formaldehyde. The agarose gel was dried, exposed to a Storm phosphorimaging screen, and developed using a Storm phosphorimager.

POLRMT = POLRMT (Homo sapiens, UniProt O00411); test: MTRNAP SNI single nucleotide incorporation; type: biochemical; conditions: 376 nM POLRMT, 500 μM NTP analog
Description: A mixture of MTCN buffer (50 mM MES, 25 mM Tris-HCl, 25 mM CAPS, and 50 mM NaCl, pH 7.5), 200 nM 5′-32P-R12/D18, 10 mM MgCl2, 1 mM DTT, and 376 nM POLRMT was preincubated at 30° C. for 1 min. The reaction was started by addition of 500 μM (final) natural NTP or NTP analogs. At selected time points, the reaction mixture was removed and quenched with gel loading buffer containing 100 mM EDTA, 80% formamide, and bromophenol blue, and heated at 65° C. for 5 min. The samples were run on a 20% polyacrylamide gel (8 M urea), and the product formation was quantified using Typhoon Trio Imager and Image Quant TL Software (GE Healthcare, Piscataway, NJ). The rate of single nucleotide incorporation by mt RNA pol was calculated by fitting the product formation using the single exponential equation: [R13]=A(1−e−kt), where [R13] represents the amount (in nM) of the elongated product formed, t represents the reaction time, k represents the observed rate, and A represents the amplitude of the exponential.

Huh7 CC50 cytotoxicity = type: cell-based; conditions: human, Huh7 cells, CellTiter-Glo
Description: Human hepatocarcinoma 7 (Huh7) cells were maintained in 10% FCS-containing complete DMEM. On day of assay, cells were trypsinized with 0.1% Trypsin-EDTA, washed and cultured in triplicate at 1-2×10^4 cells/well in 96-well plates with compounds dispensed at graded doses (Hewlett-Packard D300 Digital Dispenser). All wells were normalized to 0.25% DMSO. After 48 h, CellTiter-Gio (Promega) was added and incubated for 10 minutes at room temp before reading on a luminometer. % viability curves were calculated against no compound and no cell control wells. CC50 values (compound concentration for reducing 50% of luminescence signal as a measure of cell viability) were determined using Prism Graphpad software.

SARS-CoV2-Nluc viruses = test: microbe, parasite or virus in culture; type: cell-based, SARS-CoV-2; conditions: Severe acute respiratory syndrome coronavirus 2, A549, 48 h
Zika virus strain MR766 = test: Zika EC50 Huh7 XTT assay; conditions: Huh-7, read-out: Zika EC50 Huh7
[1] = system: Dengue serotype 2 New Guinea C (NGC) strain; test: DENV EC50 Huh7 qPCR assay; type: cell-based; conditions: Dengue virus, Huh-7, Huh7 cells, DENV2 NGC, MOI 0.1, 48 hours
Description: Huh7 (Human hepatocarcinoma 7) cells were maintained in 10% FCS-containing DMEM complete media. On the day of the assay, cells were trypsinized (0.1% Trypsin-EDTA), washed and infected for 2 hours in serum-free DMEM with Dengue serotype 2 New Guinea C (NGC) strain at MOI=0.1 with gentle agitation at 37° C. After 2 hours, cells were washed with serum-free media and suspended in 10% FCS-containing DMEM (Gibco, supplemented with sodium pyruvate, NEAA, Penicillin-Streptomycin). 10^5 cells were plated in triplicate in 96-well plates with compounds dispensed at graded doses (Hewlett-Packard D300 Digital Dispenser). All wells were normalized to 0.25% DMSO. At 48 hours, cells were washed with 1×PBS and all supernatants removed. Total RNA was extracted using RNEasy 96 plates (Qiagen) and used to generate first-strand cDNA using XLT cDNA 5× Supermix (QuantaBio). cDNA was used as a template in a Taqman qPCR duplex reaction specific to DENV2 viral and GAPDH gene expression. EC50 values were determined using Prism Graphpad software, with normalization to a positive control and no compound negative control wells.

[2] = A549-hACE2 CC50 cytotoxicity; type: cell-based; conditions: human, A549-hACE2 cells, CellTiter-Glo
Description: The cytotoxicity of compounds was determined in A549-hACE2 cells in the following manner. Compounds (200 nL) were spotted onto 384-well Grenier plates prior to seeding 5000 A549-hACE2 cells/well in a volume of 40 μL culture medium. The plates were incubated at 37° C. for 48 hours with 5% CO2. On day 2, 40 μL of CellTiter-Glo (Promega) was added and mixed 5 times. Plates were read for luminescence on an Envision (PerkinElmer) and the CC50 values were calculated using a nonlinear regression model (four parameters).

MERS-CoV = test: microbe, parasite or virus in culture; type: cell-based; conditions: Middle East respiratory syndrome-related coronavirus, Vero 76, 72 h, read-out: MERS CoV EC50

Sequence of POLRMT (O00411 42-1230): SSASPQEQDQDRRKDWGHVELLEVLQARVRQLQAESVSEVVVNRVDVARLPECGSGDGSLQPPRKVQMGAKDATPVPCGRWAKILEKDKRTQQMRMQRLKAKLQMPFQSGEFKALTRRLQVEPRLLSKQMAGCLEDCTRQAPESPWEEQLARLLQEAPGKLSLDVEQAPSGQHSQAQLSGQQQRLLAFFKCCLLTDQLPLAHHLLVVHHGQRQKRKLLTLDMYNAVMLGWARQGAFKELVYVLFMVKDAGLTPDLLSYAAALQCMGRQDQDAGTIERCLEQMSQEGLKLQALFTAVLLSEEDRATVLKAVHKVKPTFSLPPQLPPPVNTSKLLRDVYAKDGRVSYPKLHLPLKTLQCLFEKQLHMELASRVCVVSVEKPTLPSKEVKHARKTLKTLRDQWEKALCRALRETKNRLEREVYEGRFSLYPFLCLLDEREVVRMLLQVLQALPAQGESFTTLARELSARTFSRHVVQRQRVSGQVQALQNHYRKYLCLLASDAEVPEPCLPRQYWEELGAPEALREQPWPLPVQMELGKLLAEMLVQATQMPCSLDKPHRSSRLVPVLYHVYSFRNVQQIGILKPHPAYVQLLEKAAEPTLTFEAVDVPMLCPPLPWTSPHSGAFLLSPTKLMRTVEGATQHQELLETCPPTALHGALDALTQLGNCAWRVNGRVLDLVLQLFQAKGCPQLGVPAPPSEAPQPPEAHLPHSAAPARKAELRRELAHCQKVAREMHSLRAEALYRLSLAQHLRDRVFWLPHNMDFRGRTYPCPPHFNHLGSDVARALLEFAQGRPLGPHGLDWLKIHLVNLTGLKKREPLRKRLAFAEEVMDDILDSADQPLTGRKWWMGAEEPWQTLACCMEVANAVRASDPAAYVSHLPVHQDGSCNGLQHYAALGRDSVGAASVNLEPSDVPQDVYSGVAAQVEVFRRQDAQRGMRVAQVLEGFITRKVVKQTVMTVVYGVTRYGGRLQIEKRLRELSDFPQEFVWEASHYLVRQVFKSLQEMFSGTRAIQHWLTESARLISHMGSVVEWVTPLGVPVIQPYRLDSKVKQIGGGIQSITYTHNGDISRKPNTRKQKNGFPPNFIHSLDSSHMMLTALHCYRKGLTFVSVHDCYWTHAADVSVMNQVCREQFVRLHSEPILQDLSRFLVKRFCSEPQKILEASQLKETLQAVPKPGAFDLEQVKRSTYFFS
Sequence of RSV RNP complexes (P03421 whole entry): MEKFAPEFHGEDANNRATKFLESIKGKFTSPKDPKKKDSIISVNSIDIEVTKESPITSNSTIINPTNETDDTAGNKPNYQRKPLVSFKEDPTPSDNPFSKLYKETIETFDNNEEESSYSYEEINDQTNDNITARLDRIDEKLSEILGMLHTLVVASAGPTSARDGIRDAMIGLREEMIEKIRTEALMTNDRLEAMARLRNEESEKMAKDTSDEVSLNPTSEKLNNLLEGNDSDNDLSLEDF
Sequence of RSV RNP complexes (P28887 whole entry): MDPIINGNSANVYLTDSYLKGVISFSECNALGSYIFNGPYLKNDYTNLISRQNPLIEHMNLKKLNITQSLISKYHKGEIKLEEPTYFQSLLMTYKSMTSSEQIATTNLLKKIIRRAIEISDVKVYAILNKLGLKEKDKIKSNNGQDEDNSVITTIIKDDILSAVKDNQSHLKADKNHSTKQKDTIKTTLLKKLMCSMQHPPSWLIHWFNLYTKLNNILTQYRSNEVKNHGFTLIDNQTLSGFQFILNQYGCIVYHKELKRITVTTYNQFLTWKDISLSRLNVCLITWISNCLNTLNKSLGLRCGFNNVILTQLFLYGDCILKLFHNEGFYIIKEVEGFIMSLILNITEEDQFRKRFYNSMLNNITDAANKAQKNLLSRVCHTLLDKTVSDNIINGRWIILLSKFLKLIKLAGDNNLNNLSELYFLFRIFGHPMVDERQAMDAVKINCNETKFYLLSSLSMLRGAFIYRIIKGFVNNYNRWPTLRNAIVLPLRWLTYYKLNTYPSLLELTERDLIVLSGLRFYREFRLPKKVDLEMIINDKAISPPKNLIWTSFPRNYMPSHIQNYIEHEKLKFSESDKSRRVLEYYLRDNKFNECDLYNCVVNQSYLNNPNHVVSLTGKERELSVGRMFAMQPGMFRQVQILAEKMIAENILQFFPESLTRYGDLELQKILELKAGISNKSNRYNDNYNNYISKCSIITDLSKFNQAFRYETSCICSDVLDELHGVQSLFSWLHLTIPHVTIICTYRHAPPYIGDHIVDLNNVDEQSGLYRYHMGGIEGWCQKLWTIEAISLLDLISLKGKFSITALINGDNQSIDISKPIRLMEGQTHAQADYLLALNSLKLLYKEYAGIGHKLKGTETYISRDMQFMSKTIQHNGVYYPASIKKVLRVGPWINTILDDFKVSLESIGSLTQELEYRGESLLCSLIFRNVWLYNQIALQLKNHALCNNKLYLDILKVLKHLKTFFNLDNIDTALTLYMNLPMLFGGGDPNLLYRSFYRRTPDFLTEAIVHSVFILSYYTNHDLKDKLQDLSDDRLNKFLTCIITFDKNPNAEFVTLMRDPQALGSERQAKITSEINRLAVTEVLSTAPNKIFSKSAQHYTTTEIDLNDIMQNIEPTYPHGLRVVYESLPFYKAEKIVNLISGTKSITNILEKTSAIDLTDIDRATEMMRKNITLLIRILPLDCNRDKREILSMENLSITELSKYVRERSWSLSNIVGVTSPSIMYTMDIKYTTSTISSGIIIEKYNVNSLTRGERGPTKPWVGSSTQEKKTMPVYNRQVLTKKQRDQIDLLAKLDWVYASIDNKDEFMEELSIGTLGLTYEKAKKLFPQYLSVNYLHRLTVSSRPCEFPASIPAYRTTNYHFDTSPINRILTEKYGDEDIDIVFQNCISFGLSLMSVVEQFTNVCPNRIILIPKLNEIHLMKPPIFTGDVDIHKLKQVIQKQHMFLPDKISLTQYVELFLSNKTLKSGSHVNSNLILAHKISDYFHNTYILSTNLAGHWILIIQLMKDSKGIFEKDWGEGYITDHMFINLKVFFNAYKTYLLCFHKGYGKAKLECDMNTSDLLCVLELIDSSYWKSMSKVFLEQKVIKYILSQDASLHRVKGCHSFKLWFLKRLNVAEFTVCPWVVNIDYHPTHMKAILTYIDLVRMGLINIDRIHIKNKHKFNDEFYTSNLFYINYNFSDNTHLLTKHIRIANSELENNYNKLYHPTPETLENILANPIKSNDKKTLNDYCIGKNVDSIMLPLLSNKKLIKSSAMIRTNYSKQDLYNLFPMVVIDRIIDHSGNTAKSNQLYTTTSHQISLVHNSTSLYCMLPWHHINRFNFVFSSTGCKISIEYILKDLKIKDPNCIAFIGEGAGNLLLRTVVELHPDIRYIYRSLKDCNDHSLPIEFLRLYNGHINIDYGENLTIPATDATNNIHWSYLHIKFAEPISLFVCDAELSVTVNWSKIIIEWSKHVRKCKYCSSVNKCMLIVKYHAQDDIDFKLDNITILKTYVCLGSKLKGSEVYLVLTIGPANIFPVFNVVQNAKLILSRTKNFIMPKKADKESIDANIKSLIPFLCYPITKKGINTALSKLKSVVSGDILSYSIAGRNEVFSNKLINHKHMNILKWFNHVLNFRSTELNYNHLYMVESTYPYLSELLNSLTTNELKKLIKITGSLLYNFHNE

| Structure (SMILES) | CC50 (MT4 CC50 cytotoxicity) | CC50 (HEp-2 CC50 cytotoxicity) | EC50 (RSV strain A2) | IC50 (DENV2 NS5) | IC50 (RSV RNP complexes) | MTRNAP SNI (% incorporation) (POLRMT) | CC50 at 48 h (Huh7 CC50 cytotoxicity) | EC50 (SARS-CoV2-Nluc viruses) | EC50 (Zika virus strain MR766) | EC50 [1] | CC50 at 48 h [2] | EC50 (MERS-CoV) |
| --- | --- | --- | --- | --- | --- | --- | --- | --- | --- | --- | --- | --- |
| CC(C)(C)C(=O)SCCOP(=O)(OCCSC(=O)C(C)(C)C)OC[C@H]1O[C@@](C#N)(c2csc3c(N)ncnc23)[C@H](O)[C@@H]1O [Compound C4] | 11.1 µM | > 50 µM | 2.7 µM | – | – | – | – | – | – | – | – | – |
| N#C[C@@]1(c2csc3c(N)ncnc23)O[C@H](COP(=O)(O)OP(=O)(O)OP(=O)(O)O)[C@@H](O)[C@H]1O [Compound C2, ((2R,3S,4R,5R)-5-(4-aminothieno[3,2-d]pyrimidin-7-yl)-5-cyano-3,4-dihydroxytetrahydrofuran-2-yl)methyl tetrahydrogen triphosphate] | – | – | – | 8.96 µM | 2.91 µM | 0.61 % incorporation | – | – | – | – | – | – |
| CCC(CC)COC(=O)[C@H](C)NP(=O)(OC[C@H]1O[C@@](C#N)(c2csc3c(N)ncnc23)[C@H](O)[C@@H]1O)Oc1ccccc1 (stereo partly drawn) [Compound C3, 2-ethylbutyl ((((2R,3S,4R,5R)-5-(4-aminothieno[3,2-d]pyrimidin-7-yl)-5-cyano-3,4-dihydroxytetrahydrofuran-2-yl)methoxy)(phenoxy)phosphoryl)-L-alaninate] | 19 µM | > 37.2 µM | 0.435 µM | – | – | – | > 25 µM | 1.19 µM | 6.94 µM | 1.85 µM | > 50 µM | – |
| N#C[C@@]1(c2csc3c(N)ncnc23)O[C@H](CO)[C@@H](O)[C@H]1O [Compound C1, (2R,3R,4S,5R)-2-(4-aminothieno[3,2-d]pyrimidin-7-yl)-3,4-dihydroxy-5-(hydroxymethyl)tetrahydrofuran-2-carbonitrile] | > 114 µM | > 100 µM | 3.1 µM | – | – | – | – | – | – | – | – | 2.2 µM |
